Data reported in paper PMC10443802, “Targeting a xenobiotic transporter to ameliorate vincristine-induced sensory neuropathy” (JCI Insight, 2023).
Where “and” joins values, the source holds several entries; their conditions need not be identical. Equal entries are not always repeated.

Key:
hOATP1B1 = biological target: T1, hOATP1B1 (Homo sapiens, UniProt Q9Y6L6); assay: Inhibition of EβG uptake in HEK293 cells overexpressing hOATP1B1; conditions: inhibitor 10 μM, 15-min pre-incubation
T1 sequence (Q9Y6L6 1-691): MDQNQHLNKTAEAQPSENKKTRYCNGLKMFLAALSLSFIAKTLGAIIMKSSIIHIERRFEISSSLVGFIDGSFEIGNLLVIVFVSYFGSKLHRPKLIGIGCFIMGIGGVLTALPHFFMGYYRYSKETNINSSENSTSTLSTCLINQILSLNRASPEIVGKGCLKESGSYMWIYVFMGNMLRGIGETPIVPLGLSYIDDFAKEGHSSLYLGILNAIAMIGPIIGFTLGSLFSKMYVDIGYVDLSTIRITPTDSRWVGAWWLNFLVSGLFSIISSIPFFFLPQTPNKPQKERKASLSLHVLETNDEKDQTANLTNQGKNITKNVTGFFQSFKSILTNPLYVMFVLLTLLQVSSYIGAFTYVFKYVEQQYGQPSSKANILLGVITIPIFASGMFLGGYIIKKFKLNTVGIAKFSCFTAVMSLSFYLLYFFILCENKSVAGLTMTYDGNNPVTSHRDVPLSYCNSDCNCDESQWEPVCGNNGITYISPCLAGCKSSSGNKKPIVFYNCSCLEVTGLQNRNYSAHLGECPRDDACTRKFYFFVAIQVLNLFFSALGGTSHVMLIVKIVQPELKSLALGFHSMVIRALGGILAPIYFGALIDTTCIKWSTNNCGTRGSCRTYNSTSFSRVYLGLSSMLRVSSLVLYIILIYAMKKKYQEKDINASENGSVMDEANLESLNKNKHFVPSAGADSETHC

mOATP1B2 = biological target: T2, mOATP1B2 (Mus musculus, UniProt Q9JJL3); assay: Nilotinib uptake in HEK293 cells overexpressing mOATP1B2; assay type: in vitro ADME; conditions: HEK293 cells overexpressing mOATP1B2 vs vector control
T2 sequence (Q9JJL3 1-689): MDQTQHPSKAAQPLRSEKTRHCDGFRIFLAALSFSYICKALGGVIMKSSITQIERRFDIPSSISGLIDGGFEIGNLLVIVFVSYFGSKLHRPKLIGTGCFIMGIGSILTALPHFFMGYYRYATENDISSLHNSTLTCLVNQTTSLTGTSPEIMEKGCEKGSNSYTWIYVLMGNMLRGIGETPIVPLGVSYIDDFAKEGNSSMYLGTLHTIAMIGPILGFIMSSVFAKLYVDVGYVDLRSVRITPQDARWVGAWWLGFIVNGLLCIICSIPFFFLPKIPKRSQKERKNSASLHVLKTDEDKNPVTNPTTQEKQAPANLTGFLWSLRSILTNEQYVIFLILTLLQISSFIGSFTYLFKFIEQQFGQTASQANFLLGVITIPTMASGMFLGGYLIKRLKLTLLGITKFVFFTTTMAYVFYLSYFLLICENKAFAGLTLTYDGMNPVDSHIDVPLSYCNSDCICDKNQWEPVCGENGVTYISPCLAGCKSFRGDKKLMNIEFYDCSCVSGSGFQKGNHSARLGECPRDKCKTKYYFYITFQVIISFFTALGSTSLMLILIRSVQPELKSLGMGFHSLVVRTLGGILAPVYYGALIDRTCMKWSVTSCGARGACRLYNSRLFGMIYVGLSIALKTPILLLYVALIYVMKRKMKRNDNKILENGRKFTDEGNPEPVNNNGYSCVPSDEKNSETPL

hOATP5A1 = hOATP5A1 (Homo sapiens, UniProt Q9H2Y9); assay: Vincristine uptake screen, HeLa cells overexpressing hOATP5A1; assay type: in vitro ADME
Sequence of hOATP5A1 (Q9H2Y9 whole entry): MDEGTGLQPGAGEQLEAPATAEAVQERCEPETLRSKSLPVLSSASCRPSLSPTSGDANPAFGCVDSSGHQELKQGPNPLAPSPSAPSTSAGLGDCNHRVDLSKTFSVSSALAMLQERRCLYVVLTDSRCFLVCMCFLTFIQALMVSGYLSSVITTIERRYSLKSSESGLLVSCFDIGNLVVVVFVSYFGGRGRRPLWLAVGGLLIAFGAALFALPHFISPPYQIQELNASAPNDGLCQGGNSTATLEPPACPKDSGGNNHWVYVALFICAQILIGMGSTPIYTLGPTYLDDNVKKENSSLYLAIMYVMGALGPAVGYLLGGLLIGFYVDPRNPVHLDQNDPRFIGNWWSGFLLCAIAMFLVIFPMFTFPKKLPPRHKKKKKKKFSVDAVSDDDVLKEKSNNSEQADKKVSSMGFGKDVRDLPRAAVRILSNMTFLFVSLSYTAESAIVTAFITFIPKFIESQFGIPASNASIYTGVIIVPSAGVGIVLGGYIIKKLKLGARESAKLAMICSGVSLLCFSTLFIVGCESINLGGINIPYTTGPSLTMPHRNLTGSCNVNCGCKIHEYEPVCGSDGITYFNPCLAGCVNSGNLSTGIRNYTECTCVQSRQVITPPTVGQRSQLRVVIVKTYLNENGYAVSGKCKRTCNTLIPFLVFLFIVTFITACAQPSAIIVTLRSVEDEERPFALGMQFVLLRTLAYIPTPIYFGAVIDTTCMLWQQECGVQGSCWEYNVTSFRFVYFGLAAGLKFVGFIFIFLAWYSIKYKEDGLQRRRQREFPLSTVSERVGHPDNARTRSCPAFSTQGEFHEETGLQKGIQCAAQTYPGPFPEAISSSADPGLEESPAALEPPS
Method: (§1) Relative uptake is expressed as percentage change compared with empty vector controls (n = 4–14 per group). […] Human OATP1B1 and OATP1B3 transporter–overexpressed cells were used as positive controls; empty vector controls were used as the negative control. […] Mechanical allodynia (C), thermal hyperalgesia (D), and sciatic nerve maximal action potential amplitudes (E) are expressed as percentage change relative to baseline values (n = 6–8 per group). Statistical analysis was performed using a 2-way ANOVA with Bonferroni’s post hoc test. **P < 0.01, ***P < 0.001, ****P < 0.0001, compared with baseline values. […] Data are shown as mean ± SEM. […]
(§2) transfected with transporters of interest, including hOAT1, hOAT3, hOAT4, hOATP1A2, hOATP3A1, hOATP4A1, hOATP5A1, hOATP1C1, hOATP1B1, hOATP1B3, hOATP2B1, hOCT1, hOCT2, hOCTN1, hOCTN2, hASBT, hNTCP, hNPT1, hMATE1, hOSTα/β, hPEPT1, hPEPT2, rOatp1a1, rOatp1a4, rOatp1a5, rOatp1b2, rNtcp, rAsbt, rOat1, and rOct1. Cells were transfected with expression plasmid or vector control lacking any insert using Lipofectin reagent (Invitrogen). Sixteen hours thereafter, cells were washed with transport media (OPTIMEM, Invitrogen) and treated with radiolabeled drug. […] The cellular radioactivity was quantified by liquid scintillation counting as described above. […]

rASBT = rASBT (Rattus norvegicus, UniProt Q62633); assay: Vincristine uptake screen, HeLa cells overexpressing rASBT; assay type: in vitro ADME
Sequence of rASBT (Q62633 whole entry): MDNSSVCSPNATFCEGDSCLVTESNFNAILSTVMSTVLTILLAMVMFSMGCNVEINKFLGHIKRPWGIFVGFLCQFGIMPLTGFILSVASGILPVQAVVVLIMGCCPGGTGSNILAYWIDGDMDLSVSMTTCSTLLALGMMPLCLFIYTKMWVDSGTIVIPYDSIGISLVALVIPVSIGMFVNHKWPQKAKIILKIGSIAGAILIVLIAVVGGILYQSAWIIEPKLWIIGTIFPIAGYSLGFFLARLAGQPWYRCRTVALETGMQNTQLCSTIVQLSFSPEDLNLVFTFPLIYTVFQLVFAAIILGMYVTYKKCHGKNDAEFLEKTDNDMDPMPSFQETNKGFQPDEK
Method: as §1, §2

K562 = assay: Cytotoxicity of vincristine with or without nilotinib, MTT assay, K562; assay type: cell-based; conditions: Homo sapiens, K562, K562 cells, vincristine + 1μM Nilotinib, individual replicates

Cc1cn(-c2cc(NC(=O)c3ccc(C)c(Nc4nccc(-c5cccnc5)n4)c3)cc(C(F)(F)F)c2)cn1 [Nilotinib, nilotinib]
EβG uptake (% of vehicle) (hOATP1B1): 9.108 % of vehicle and 9.828 % of vehicle and 15.7637 % of vehicle | Nilotinib uptake (% of control) (mOATP1B2): 68.9093 % of control and 50.5858 % of control and 83.427 % of control

CC[C@]1(O)C[C@H]2CN(CCc3c([nH]c4ccccc34)[C@@](C(=O)OC)(c3cc4c(cc3OC)N(C=O)[C@H]3[C@@](O)(C(=O)OC)[C@H](OC(C)=O)[C@]5(CC)C=CCN6CC[C@]43[C@@H]65)C2)C1 [Vincristine, vincristine]
Vincristine uptake (% of vector control) (hOATP5A1): 109.00 % of vector control and 94.00 % of vector control and 90.00 % of vector control and 76.00 % of vector control and 77.00 % of vector control and 86.00 % of vector control and 80.00 % of vector control and 85.00 % of vector control | Vincristine uptake (% of vector control) (rASBT): 95.00 % of vector control and 78.00 % of vector control and 81.00 % of vector control and 90.00 % of vector control and 114.00 % of vector control and 85.00 % of vector control and 118.00 % of vector control | IC50 (K562): 0.0175 µM
